Measurements as given in article PMC11851430, “Workflow for E3 Ligase Ligand Validation for PROTAC Development” (ACS Chemical Biology, 2025).

Legend:
ITK = target: T1, ITK (Homo sapiens, UniProt Q08881); assay: Western blot assay; type: cell-based; conditions: Jurkat cells, 6 h
T1 construct: endogenous in cells; host or cells: Jurkat
T1 sequence (Q08881 1-620): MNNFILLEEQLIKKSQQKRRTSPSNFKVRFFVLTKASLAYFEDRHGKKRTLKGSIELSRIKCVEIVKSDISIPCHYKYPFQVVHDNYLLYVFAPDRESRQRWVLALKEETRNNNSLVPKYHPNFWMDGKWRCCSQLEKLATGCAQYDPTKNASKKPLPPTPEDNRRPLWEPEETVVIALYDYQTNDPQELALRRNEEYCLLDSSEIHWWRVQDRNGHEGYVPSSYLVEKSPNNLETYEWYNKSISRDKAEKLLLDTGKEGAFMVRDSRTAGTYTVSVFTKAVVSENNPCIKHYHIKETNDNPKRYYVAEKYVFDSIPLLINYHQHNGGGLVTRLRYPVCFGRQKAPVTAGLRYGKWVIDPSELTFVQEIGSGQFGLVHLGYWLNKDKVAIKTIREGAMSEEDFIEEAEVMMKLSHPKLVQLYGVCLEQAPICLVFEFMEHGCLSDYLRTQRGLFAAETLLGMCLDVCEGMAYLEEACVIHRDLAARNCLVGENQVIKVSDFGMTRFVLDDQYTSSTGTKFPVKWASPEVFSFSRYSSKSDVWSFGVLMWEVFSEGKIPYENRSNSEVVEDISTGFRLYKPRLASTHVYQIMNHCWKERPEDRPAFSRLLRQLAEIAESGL
Protocol: (§1) Two mL of Jurkat cells were seeded into 6 well plates (Greiner) at a density of 5·10 5 cells/mL.
(§2) The following day, cells were treated with compounds at according concentrations or DMSO for 6 hours and then lysed with 6 M Urea at 4 °C for 20 minutes. The lysates were centrifuged for 15 minutes at 16000 g and the supernatant was collected to perform the Western-Blot.
(§3) Protein quantification was performed using nanodrop One. The SDS samples were prepared […]
(§4) The samples were separated by a BIS-TRIS polyacrylamide gel polyacrylamide gel, 100 V for 1:45) followed by transfer to PVDF membranes (Millipore) at 350 mA for 140 minutes. The membranes were blocked using 5%wt/vol BSA (in TBS-T, 20 mM Tris-HCl, pH 7.5, 150 mM NaCl and 0.1% (vol/vol) Tween 20) at room temperature for 1 hour.
(§5) The blots were incubated with respective primary antibodies at 1:1000 dilution (Cell Signaling technologies: Aurora A (D3E4Q), ITK (2F12) and GAPDH (D4C6R)) at 4 °C overnight. The blots were washed with TBS-T thrice and incubated with 1:5000 dilution of horseradish peroxidase (HRP)-labelled respective secondary antibodies (Cell Signaling technologies, Anti- […]
(§6) The blots were washed with TBS-T thrice and then incubated with chemiluminescent HRP substrate (Bio-Rad) for 2 minutes. The blots were imaged and the signals were detected using the Amersham ImageQuant 800 (Cytiva).
(§7) Cell culture. Human MV4-11 ([…]) and human Jurkat ([…]) cells were cultured in RPMI- […]
(§8) °C in 5% CO2. Both media were supplemented with 10% FBS and 1% penicillin/streptomycin. […]

AURKA = target: T2, AURKA (Homo sapiens, UniProt O14965); assay: Western blot assay; type: cell-based; set-up: endogenous in cells; host or cells: Jurkat; conditions: Jurkat cells, 6 h
T2 sequence (O14965 1-403): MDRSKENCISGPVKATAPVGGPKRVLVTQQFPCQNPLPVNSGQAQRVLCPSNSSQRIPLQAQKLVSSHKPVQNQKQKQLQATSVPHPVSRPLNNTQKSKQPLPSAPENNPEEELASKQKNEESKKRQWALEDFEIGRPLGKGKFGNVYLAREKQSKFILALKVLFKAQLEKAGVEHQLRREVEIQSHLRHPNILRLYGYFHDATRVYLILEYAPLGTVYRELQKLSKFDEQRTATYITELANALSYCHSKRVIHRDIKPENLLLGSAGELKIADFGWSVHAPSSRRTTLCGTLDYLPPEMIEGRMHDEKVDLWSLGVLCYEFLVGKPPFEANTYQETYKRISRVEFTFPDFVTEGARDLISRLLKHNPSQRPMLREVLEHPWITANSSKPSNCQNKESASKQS
Protocol: as §1, §2, §3, §4, §5, §6, §7, §8

ABL1 = target: T3, ABL1 (Homo sapiens, UniProt P00519); assay: Kinobeads selectivity profiling; type: binding; conditions: Jurkat lysate, dose series given in nM, read-out: Kd (apparent dissociation constant, corrected for protein depletion)
T3 construct: endogenous in cells; host or cells: Jurkat (Clone E6.1) cell lysate
Protocol: (§9) Excitation and emission filters […]
(§10) curve. […] Measurements were
(§11) Kinobeads selectivity profiling of PROTACs
(§12) (Multiplexion, Heidelberg, Germany).
(§13) The cell lysate was ultracentrifuged and diluted
(§14) NaF, 1 mM DTT, protease inhibitors and phosphatase inhibitors to a final concentration of 5 mg/ml as determined by Bradford assay. For selectivity profiling of compounds the cell lysate (2.5 mg of total proteins per pulldown) was pre-incubated with increasing compound […]
(§15) µM) for 45 min at 4 °C in an end-over-end shaker. Subsequently, lysates were incubated with Kinobeads epsilon (17 µL settled beads) for 30 min at 4 °C. To assess the degree of protein depletion from the lysates by Kinobeads, the flow-through of the DMSO control was recovered […]
(§16) for a pulldown of pulldown experiment where the lysate was incubated a second time with fresh Kinobeads. Beads were washed in 3 steps with buffer containing 0.4%, 0.2% and no NP40.
(§17) Bound proteins were reduced with 50 mM DTT in 8 M Urea, 40 mM Tris-HCl pH 7.4 for 30 min at room temperature. After alkylation with 55 mM chloroacetamide (CAA), the Urea concentration was reduced to 1 – 2 M and proteins were digested using trypsin. Acidified peptides were desalted and concentrated using SepPak tC18 µEluation plates (Waters).
(§18) Samples were frozen, dried by vacuum centrifugation and stored at -20 °C.
(§19) LC-MS2 analysis. Peptides were measured on a Dionex Ultimate3000 nano HPLC coupled online to an Orbitrap Fusion Lumos (Thermo Fisher Scientific) mass spectrometer.
(§20) Peptides were dissolved in 0.1% formic acid and delivered to a trap column (ReproSil-pur C18-AQ, 5 μm, Dr. Maisch, 20 mm × 75 μm, self-packed) at a flow rate of 5 μL/min in LC solvent A (0.1 % formic acid).4 After 10 min of loading, peptides were transferred to an analytical column (ReproSil Gold C18-AQ, 3 μm, Dr. Maisch, 400 mm × 75 μm, self-packed) and separated using […]
(§21) acetonitrile) in LC solvent A.
(§22) The Orbitrap Fusion Lumos was operated as follows: positive polarity; spray voltage 2.1 kV, […]
(§23) A full-scan (MS1) was recorded from 360 to 1300 m/z with a resolution of 60,000 in the Orbitrap in profile mode. The MS1 AGC target was set to 4e5 and the maxIT was set to 50 ms, RF lens value was set to 50%. Based on the full scans, precursors were targeted for the MS/MS scans […]
(§24) intensity exceeded 2.5e4. The dynamic exclusion was set to 30 sec and exclude isotopes was switched on. The MS2 quadrupole isolation window was set to 1.7 m/z. Peptide fragmentation occurred in the ion routing multipole (IRM) by HCD with a fixed collision energy mode, the […]

AAK1 = target: T4, AAK1 (Homo sapiens, UniProt Q2M2I8); assay: Kinobeads selectivity profiling; type: binding; conditions: Jurkat lysate, dose series given in nM, read-out: Kd (apparent dissociation constant, corrected for protein depletion)
T4 construct: endogenous in cells; host or cells: Jurkat (Clone E6.1) cell lysate
Protocol: as §9, §10, §11, §12, §13, §14, §15, §16, §17, §18, §19, §20, §21, §22, §23, §24

full-length AAK1 = full-length AAK1 (Homo sapiens, UniProt Q2M2I8); assay: NanoBRET target engagement assay, intact and permeabilized cells; conditions: NanoBRET, mean of duplicates
Protocol: Compounds were pipetted at various concentrations using an Echo acoustic dispenser (Labcyte), immediately followed by Tracer K10 (Promega, Tracer DB ID: T000008) for AAK1 and Aurora A and VHL Tracer (Promega, Tracer DB ID: T000019) for VHL, at an optimum KD concentration chosen from TracerDB ( tracerdb.org), respectively.
To measure the BRET signal, the NanoBRET® NanoGlo Substrate (Promega:
N1573) was added as per the manufacturer’s protocol, and filtered luminescence was measured on a PHERAstar plate reader (BMG Labtech) equipped with a luminescence filter pair (450 nm BP filter (donor) and 610 nm LP filter (acceptor)). For NanoBRET® measurement in permeabilized cells, 25 nL of digitonin (0.05 μg/μL) was pipetted into each well using an
After incubation, the BRET signals were measured by a PHERAstar plate reader (BMG Labtech) following the same procedure as intact NanoBRET® measurement. Competitive displacement data were then normalized to controls and were plotted using GraphPad Prism 9 software employing a normalized 3-parameter curve fit with the following equation:

Jurkat cells = assay: CellTiterGlo cell viability assay; type: cell-based, human; conditions: Homo sapiens, 24 h, mean of triplicates, ^b/^c values estimated, read-out: IC50±sd/μM (cell viability)
Protocol: The effects of the compounds on cell viability was determined using the CellTiter-Glo® 2.0 Cell Viability Assay (Promega: G9241) following manufacturer’s protocol. Ten µL of Jurkat cells at […]
After equilibration, PROTACs were titrated at various concentrations using an Echo acoustic […]
volume of CellTiter-Glo® 2.0 reagent (10 µL) was added to each well and cells were incubated for 10 minutes at room temperature. Filtered luminescence was measured on a PHERAstar plate reader (BMG Labtech) and data was evaluated using GraphPad Prism 9 software employing a normalized curve it with the following equation: Y=Bottom + (Top-Bottom)/(1+10(LogEC50-X) *HillSlope).
Sample preparation. Jurkat cells (ATCC © HTB-22) were cultured in RPMI (Thermo: […]

[1] = AAK1 intact (IC50±sd)/μM, intact cells, ^a values estimated by extrapolation
[2] = AAK1 permeabilized (IC50±sd)/μM, permeabilized cells

Chain of full-length AAK1 (Q2M2I8 whole entry): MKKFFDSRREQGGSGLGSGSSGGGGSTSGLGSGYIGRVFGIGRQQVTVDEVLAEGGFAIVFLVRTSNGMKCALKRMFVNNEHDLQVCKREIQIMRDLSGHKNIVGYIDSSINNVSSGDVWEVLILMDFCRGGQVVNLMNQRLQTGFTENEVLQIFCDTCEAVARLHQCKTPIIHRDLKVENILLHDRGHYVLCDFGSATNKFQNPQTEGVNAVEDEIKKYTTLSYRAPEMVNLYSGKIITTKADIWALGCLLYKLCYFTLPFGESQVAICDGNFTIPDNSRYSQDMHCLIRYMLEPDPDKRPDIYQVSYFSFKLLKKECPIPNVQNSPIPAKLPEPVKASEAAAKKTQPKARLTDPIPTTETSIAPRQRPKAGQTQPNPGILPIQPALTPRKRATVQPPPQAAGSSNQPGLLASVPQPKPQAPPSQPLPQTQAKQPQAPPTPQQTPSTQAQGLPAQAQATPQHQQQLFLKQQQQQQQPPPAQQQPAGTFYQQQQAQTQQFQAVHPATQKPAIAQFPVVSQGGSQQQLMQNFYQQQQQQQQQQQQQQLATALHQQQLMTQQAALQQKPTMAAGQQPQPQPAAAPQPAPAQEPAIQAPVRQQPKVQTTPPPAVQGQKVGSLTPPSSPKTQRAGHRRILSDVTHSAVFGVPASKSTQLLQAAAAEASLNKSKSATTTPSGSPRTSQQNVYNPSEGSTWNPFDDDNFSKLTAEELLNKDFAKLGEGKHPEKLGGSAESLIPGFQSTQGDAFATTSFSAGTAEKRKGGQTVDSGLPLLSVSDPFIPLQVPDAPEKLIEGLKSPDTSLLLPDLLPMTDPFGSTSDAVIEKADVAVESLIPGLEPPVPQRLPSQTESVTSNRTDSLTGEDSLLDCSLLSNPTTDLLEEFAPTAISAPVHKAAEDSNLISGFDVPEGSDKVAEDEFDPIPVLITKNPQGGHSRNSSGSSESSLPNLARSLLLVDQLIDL
T3 sequence (P00519 whole entry): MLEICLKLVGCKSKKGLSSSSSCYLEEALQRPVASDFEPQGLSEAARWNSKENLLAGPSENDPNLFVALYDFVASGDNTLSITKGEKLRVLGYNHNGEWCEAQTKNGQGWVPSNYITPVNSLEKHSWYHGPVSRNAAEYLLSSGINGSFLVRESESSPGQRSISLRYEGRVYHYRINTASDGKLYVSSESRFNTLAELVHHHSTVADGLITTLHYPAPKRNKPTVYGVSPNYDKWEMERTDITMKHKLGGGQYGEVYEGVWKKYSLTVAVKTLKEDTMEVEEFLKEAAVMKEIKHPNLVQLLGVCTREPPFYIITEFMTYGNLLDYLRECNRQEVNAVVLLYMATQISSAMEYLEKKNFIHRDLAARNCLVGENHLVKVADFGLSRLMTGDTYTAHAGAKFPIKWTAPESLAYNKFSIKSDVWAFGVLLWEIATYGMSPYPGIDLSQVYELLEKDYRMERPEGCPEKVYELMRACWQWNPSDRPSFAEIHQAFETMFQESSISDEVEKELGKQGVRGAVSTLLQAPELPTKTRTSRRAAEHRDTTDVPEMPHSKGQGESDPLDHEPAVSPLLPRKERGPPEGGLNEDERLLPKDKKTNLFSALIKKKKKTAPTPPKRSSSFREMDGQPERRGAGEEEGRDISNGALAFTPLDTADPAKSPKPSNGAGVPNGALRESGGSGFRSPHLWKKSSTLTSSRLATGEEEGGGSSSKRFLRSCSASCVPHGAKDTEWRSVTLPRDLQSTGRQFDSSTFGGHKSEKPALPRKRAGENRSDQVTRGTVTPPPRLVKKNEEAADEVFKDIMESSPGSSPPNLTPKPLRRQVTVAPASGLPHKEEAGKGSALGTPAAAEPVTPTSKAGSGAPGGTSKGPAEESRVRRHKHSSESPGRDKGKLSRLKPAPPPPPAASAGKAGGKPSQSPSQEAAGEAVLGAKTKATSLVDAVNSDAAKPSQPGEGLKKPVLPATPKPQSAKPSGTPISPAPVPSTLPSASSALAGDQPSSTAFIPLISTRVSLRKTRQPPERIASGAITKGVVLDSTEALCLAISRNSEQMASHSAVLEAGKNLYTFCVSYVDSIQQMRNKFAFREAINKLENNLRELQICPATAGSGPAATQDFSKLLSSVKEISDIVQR
T4 sequence (Q2M2I8 whole entry): as the sequence (Q2M2I8 whole entry) above

ITK protein levels (Western blot) (ITK) | AURKA protein levels (Western blot) (AURKA) | Kd (ABL1) [nM] | Kd (AAK1) [nM] | IC50 (full-length AAK1; [1]) [µM] | IC50 (full-length AAK1; [2]) [µM] | IC50 (Jurkat cells) [µM] | SMILES
only weak degradation of ITK |  |  |  |  |  |  | COc1cc(C)c(Sc2cnc(NC(=O)c3ccc(N4CCN(CCCCCCCNC(=O)COc5cccc6c5C(=O)N(C5CCC(=O)NC5=O)C6=O)CC4)cc3)s2)cc1C(=O)N1CCN(C(C)=O)CC1 (centres unmarked) [BSJ-05–037, reference compound]
 | strong degradation |  |  |  |  |  | O=C(COc1cccc2c1C(=O)N(C1CCC(=O)NC1=O)C2=O)NCCOCCOCCNC(=O)C1(Cc2cccc(Nc3nccs3)n2)CCC(Oc2cccc(Cl)c2F)CC1 (centres unmarked) [JB300, reference compound]
 |  | 2970 | 29.4 | 0.005 | 0.003 |  | CC(C)(C)OC(=O)N1CCN(c2cc(Nc3cc(C4CC4)[nH]n3)nc(Nc3ccc(CC#N)cc3)n2)CC1 [compound 4]
 |  | 420 | 6.4 | 0.004 ± 0.001 | 0.004 | 0.7 ± 0.2 | NC(=O)c1ccccc1Nc1nc(Nc2ccc(N3CCNCC3)cc2)ncc1Cl [compound 6]
